Measured values: patent publication US9708265B2, “Urethanes, ureas, amidines and related inhibitors of factor Xa” (priority 2010, dated 2017)

Key:
factor Xa = factor Xa (Homo sapiens, UniProt P00742); assay: Activity towards factor Xa in vitro (initial rate of decomposition of substrate S-2222); format: biochemical; conditions: substrate S-2222 164 μM, room temperature, pH 7.5, 10 min preincubation; Ki calculated from IC50
Protocol: For some compounds depicted in the above examples, there has been measured a constant of activity of these substances towards the factor Xa in vitro—Ki. The measurements were carried out kinetically, in terms of the initial rate of decomposition of the substrate S-2222 by the protein. The measurements were carried out at room temperature in 2 ml rectangular quartz cuvettes. In the reaction there was used a solution: 50 mM Tris-HCl, 150 mM NaCl, 2.5 mM CaCl2, and 0.1% PEG 6000, pH 7.5, factor Xa […], S-2222 164 μM. The standard least-squares method was used for determining Km for certain concentrations of the protein and substrate. Before the reaction, the protein and the active agent in the solution were under thermostatic control for 10 min; then the substrate was added and the reaction was initiated. The reaction rate was measured with a Specord M80 instrument from a change in the light absorption at a wavelength of 405 nm. The IC50 values were determined from the experimentally obtained dependence of the initial rates on the concentration of the inhibitor (active agent). The Ki values were calculated from the concentrations of the protein, substrate, and inhibitors; the IC50 values, by the method described in (1) Jordan, S. P.; Waxman, L.; Smith, D. E.; Vlasik, G. P. Biochemistry 1990, 29, 11095 and (2) Morrison, J. F. Biochim Biophys. Acta 1969, 185, 269.

human blood plasma = assay: Prothrombin time in human blood plasma in vitro (Diahem P kit); conditions: 3 min incubation, average of 3 measurements
Protocol: For some compounds depicted in the above examples, there has been measured the concentration of these compounds in human blood plasma, at which the prothrombin time of plasma is twice as much—2PT. The measurements were carried out with the aid of a Diahem P kit (NPO Renam, www.renam.ru) by a method described in the instruction for users of the kit. The active compound was dissolved in a blood plasma provided in the kit and was incubated for 3 min. The measurements were carried out with a Sysmex CA 50 instrument. For each concentration, there were taken 3 measurements and the result was averaged.

Chain of factor Xa (P00742 235-488 limits assumed): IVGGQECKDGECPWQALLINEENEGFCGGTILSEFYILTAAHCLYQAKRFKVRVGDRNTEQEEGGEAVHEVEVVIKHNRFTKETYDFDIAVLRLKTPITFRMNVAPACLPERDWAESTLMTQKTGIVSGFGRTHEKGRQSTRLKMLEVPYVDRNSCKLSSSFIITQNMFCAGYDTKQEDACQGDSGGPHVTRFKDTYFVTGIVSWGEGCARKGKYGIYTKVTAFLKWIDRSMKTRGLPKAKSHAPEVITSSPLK
Chain of factor Xa (P00742 41-179 partner limits assumed): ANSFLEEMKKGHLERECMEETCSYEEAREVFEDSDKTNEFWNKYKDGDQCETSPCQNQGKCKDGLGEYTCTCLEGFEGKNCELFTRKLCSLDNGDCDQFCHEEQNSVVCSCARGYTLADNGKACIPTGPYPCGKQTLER

SMILES | Ki (factor Xa) | 2 × PT (concentration at which the prothrombin time of plasma is twice as much) (human blood plasma)
CC(=N)N(C)c1ccc(C(=O)Nc2ccccc2C(=O)Nc2ccc(Cl)cn2)cc1 [Example 1, N-(5-chloropyridine-2-yl)-2-[(4-ethaneimidoyl-methylaminophenylcarbonyl)amino]benzamide] | 2 nM | 
CC(=N)N(C)c1ccc(C(=O)Nc2ccc(C)cc2C(=O)Nc2ccc(Cl)cn2)cc1 [Example 2, N-(5-chloropyridine-2-yl)-2-[(4-ethaneimidoyl-methyl-aminophenylcarbonyl)amino]5-methylbenzamide] | 0.5 nM | 
CC(=N)N(C)c1ccc(C(=O)Nc2ccc(Cl)cc2C(=O)Nc2ccc(Cl)cn2)cc1 [Example 3, N-(5-chloropyridine-2-yl)-2-[(4-ethaneimidoyl-methyl-aminophenylcarbonyl)amino]-5-chlorobenzamide] | 0.3 nM | 
COc1ccc(NC(=O)c2ccc(N(C)C(C)=N)cc2)c(C(=O)Nc2ccc(Cl)cn2)c1 [Example 4, N-(5-chloropyridine-2-yl)-2-[(4-ethaneimidoyl-methyl-aminophenylcarbonyl)amino]5-methoxybenzamide] | 1 nM | 
CC(=N)N(C)c1ccc(C(=O)Nc2ccccc2C(=O)Nc2ccc(Cl)cn2)c(OCCCN)c1 [Example 5, N-(5-chloropyridine-2-yl)-2-[4-(ethaneimidoylmethylamino)-2-(3-aminopropoxy)phenylcarbonyl-amino]benzamide] | 0.5 nM | 0.2 µM
CC(=N)N(C)c1ccc(C(=O)Nc2ccc(C)cc2C(=O)Nc2ccc(Cl)cn2)c(OCCCN)c1 [Example 6] | 0.5 nM | 0.2 µM
CC(=N)N(C)c1ccc(C(=O)Nc2ccc(Cl)cc2C(=O)Nc2ccc(Cl)cn2)c(OCCCN)c1 [Example 7, N-(5-chloropyridine-2-yl)-2-[4-(ethaneimidoylmethylamino)-2-(3-aminopropoxy)phenylcarbonylamino]-5-chlorobenzamide] | 0.5 nM | 
COc1ccc(NC(=O)c2ccc(N(C)C(C)=N)cc2OCCCN)c(C(=O)Nc2ccc(Cl)cn2)c1 [Example 8, N-(5-chloropyridine-2-yl)2-[4(ethaneimidoylmethylamino)-2-(3-aminopropoxy)phenylcarbonyl-amino]-5-methoxybenzamide] | 0.5 nM | 0.2 µM
CC(=N)N(C)c1cc(F)c(C(=O)Nc2ccc(C)cc2C(=O)Nc2ccc(Cl)cn2)c(OCCCN)c1 [Example 9, N-(5-chloropyridine-2-yl)-2-[4-(ethaneimidoylmethylamino)-2-(3-aminopropoxy)-6-fluorophenylcarbonylamino]-5-methylbenzamide] | 0.4 nM | 0.15 µM
CC(=N)N(C)c1cc(F)c(C(=O)Nc2ccc(Cl)cc2C(=O)Nc2ccc(Cl)cn2)c(OCCCN)c1 [Example 10, N-(5-chloropyridine-2-yl)-2-[2-(3-aminopropoxy)-6-fluoro-4(ethaneamidoylmethylamino)phenylcarbonylamino]-5-chlorobenzamide] | 0.4 nM | 0.15 µM
CC(=N)N(C)c1ccc(C(=O)Nc2ccc(C)cc2C(=O)Nc2ccc(Cl)cn2)c(F)c1 [Example 11] | 0.8 nM | 0.09 µM
CC(=N)N(C)c1ccc(C(=O)Nc2ccc(Cl)cc2C(=O)Nc2ccc(Cl)cn2)c(F)c1 [Example 12] | 1 nM | 0.09 µM
CC(=N)N(C)c1ccc(C(=O)Nc2ccc(C)cc2C(=O)Nc2ccc(Cl)cn2)c(OCCCNC(C)=O)c1 [Example 13, N-(5-chloropyridine-2-yl)-2-[4-(ethaneimidoylmethylamino)-2-(3-(acetylamino)propoxy)phenylcarbonylamino]-5-methylbenzamide] | 0.5 nM | 1.5 µM
COC(=N)N(C)c1ccc(C(=O)Nc2ccc(C)cc2C(=O)Nc2ccc(Cl)cn2)cc1 [Example 14, N-(5-chloropyridine-2-yl)-2-[(4-(imino(methoxy)methyl)(methyl)aminophenylcarbonyl)amino]5-methylbenzamide] | 2 nM | 
CNC(=N)N(C)c1ccc(C(=O)Nc2ccc(C)cc2C(=O)Nc2ccc(Cl)cn2)cc1 [Example 15] | 0.5 nM | 1.5 µM
CNC(=N)N(C)c1ccc(C(=O)Nc2ccc(Cl)cc2C(=O)Nc2ccc(Cl)cn2)cc1 [Example 16] | 0.5 nM | 1.5 µM
CNC(=O)N(C)c1ccc(C(=O)Nc2ccc(Cl)cc2C(=O)Nc2ccc(Cl)cn2)cc1 [Example 17, N-(5-chloropyridine-2-yl)-2-[(4-methyl(methylcarbamoyl)aminophenylcarbonyl)amino]-5-chlorobenzamide] | 0.15 nM | 
CNC(=O)N(C)c1ccc(C(=O)Nc2ccc(C)cc2C(=O)Nc2ccc(Cl)cn2)cc1 [Example 18] | 0.15 nM | 3.0 µM
CNC(=O)N(C)c1ccc(C(=O)Nc2ccc(C)cc2C(=O)Nc2ccc(Cl)cn2)c(OCCCN)c1 [Example 19] | 0.2 nM | 1.0 µM
CNC(=O)N(C)c1ccc(C(=O)Nc2ccc(Cl)cc2C(=O)Nc2ccc(Cl)cn2)c(OCCCN)c1 [Example 20] | 0.2 nM | 1.0 µM
